# Experimental data as given in patent US20070015813A1, “Treatment of protein folding disorders” (QUEEN'S UNIVERSITY AT KINGSTON, priority 2005, published 2007).
# Assays:
# Aβ1-40 [1] = biological target: T1, Aβ1-40 (Homo sapiens, UniProt P05067); experiment: Kinetic Thioflavin T (ThT) aggregation assay of Aβ1-40; type: biochemical; conditions: 20 μM Aβ1-40, 4 μM ThT, pH 7.4, 37° C., kinetic ThT assay
# T1 construct: Aβ^1-40 (AnaSpec, San Jose, Calif., lots 14212, 34862 and 34889); purchased AnaSpec, San Jose, Calif
# Protocol: Aβ^1-40 (1.0 mg) was pre-treated in a 1.5 mL microfuge tube with 1,1,1,3,3,3-hexafluoroisopropanol (HFIP, 1 mL) and sonicated for 20 min. to disassemble any pre-formed Aβ aggregates. The HFIP was removed with a stream of argon and the Aβ dissolved in Tris base (5.8 mL, 20 mM, pH 10.5). The pH was adjusted to 7.4 with concentrated HCl and the solution filtered using a syringe filter (0.2 μm). This solution was used for circular dichroism studies or diluted with an equal volume of 8 μM Thioflavin T (ThT) in Tris-HCl (20 mM, pH 7.4, 300 mM NaCl) for the ThT aggregation assay.
# (§1) Aliquots (200 μL) of Aβ^1-40, Aβ^1-42, tau441 or α-synuclein with ThT or ThS were added to wells of a black polystyrene 96-well plate, followed by 2 μL of a compound in DMSO (various concentrations), or DMSO alone (controls). For α-synuclein, sodium dodecyl sulfate solution (2.0 μL, 30 mM) was also added to each well to induce aggregation. Incubations were performed in triplicate and were taken to contain 20 μM Aβ^1-40 or Aβ^1-42, 6 μM tau441 or 4 μM α-synuclein. Plates were covered with clear polystyrene lids and incubated at 37° C. in a GENios microplate reader obtained from Tecan Group Limited, Mannedorf, Zurich. For Aβ^1-40, tau441 and α-synuclein, fluorescence readings (λex=450 nm, λem=480 nm) were taken every 15 min., after first shaking at high intensity for 15 sec. and allowing to settle for 10 sec. before each reading. For Aβ^1-42, readings were taken every 5 min.
# (§2) The absorbance of each compound was measured under the conditions used during testing, though on ten times the scale (2 mL), to ensure no significant quenching interfered with the assay. This step was also used to identify whether compounds were completely soluble under testing conditions.
# FIG. 1 depicts the inhibition of Aβ^1-40 aggregation, as measured by Thioflavin T (ThT) fluorescence, by directly-linked 3,3′-bis-indolyl compounds 0c-i (A), other bis-indoles (B), aza-indole-containing compounds (C), indole-phenols (D), indole-5-carboxylic acid-containing bi-aromatics (E), and naphthol-containing bi-aromatics (F). Aggregation conditions: 20 μM Aβ^1-40 incubated in covered black 96-well polystyrene microplates with 4 μM ThT, pH 7.4, Tris-HCl (20 mM), 150 mM NaCl, 1% DMSO. Compound concentrations are 200 μM (A,B, except where otherwise noted), 100 μM (E), 20 μM (F), or as indicated (C,D). Plates heated at 37° C. in Tecan Genios microplate reader. All incubations performed in triplicate. Prior to experiment, Aβ^1-40 pretreated with 1,1,1,3,3,3-hexafluoroisopropanol (HFIP). Fluorescence readings: fluorescence measured every 15 min. (λex=450 nm, λem=480 nm) after shaking for 15 sec. and pausing 10 sec. before taking measurement. Values are the mean of three replicates. Error bars, omitted for clarity in (B), represent standard deviation of the mean.
# Aβ1-42 = biological target: T2, Aβ1-42 (Homo sapiens, UniProt P05067); experiment: Kinetic Thioflavin T (ThT) aggregation assay of Aβ1-42; type: biochemical; conditions: 20 μM Aβ1-42, kinetic ThT assay
# T2 construct: Aβ^1-42 (AnaSpec, lot 45685); purchased AnaSpec
# Protocol: Aβ^1-42 (1.0 mg) was either pretreated with HFIP in the same manner as Aβ^1-40 or this step was omitted. After removing HFIP, when appropriate, Aβ^1-42 was dissolved in 1% NH3 (aq.) (200 μL) and sonicated for 1 min. The solution was diluted with Tris-HCl (5.7 mL, 20 mM, pH 7.4), the pH adjusted to 7.4 with concentrated HCl (aq.) and the solution filtered using a syringe filter (0.2 μm). Prior to use in the ThT aggregation assay, the solution was diluted with an equal volume of 8 μM Thioflavin T (ThT) in Tris-HCl (20 mM, pH 7.4, 300 mM NaCl).
# as §1, §2
# FIG. 7 depicts inhibition of Aβ^1-42 aggregation by various synthesized bi-aromatic compounds and positive controls morin (Ono K, Yoshiike Y, Takashima A, Hasegawa K, Naiki H, Yamada M. 2003. J Neurochem 87:172-81) and RS-0406 (Walsh D M, Townsend M, Podlisny M B, Shankar G M, Fadeeva J V, Agnaf O E, Hartley D M, Selkoe D J. 2005. J Neurosci 25:2455-62) in the kinetic ThT assay. Same conditions as for Aβ^1-40, FIG. 1. Compound concentrations were 100 μM in (A), 20 μM in (B), except for RS-0406, which was tested at 100 μM, and 20 μM in (C).
# Aβ1-40 [2] = biological target: T1, Aβ1-40; experiment: Circular dichroism studies of Aβ1-40; type: biochemical; conditions: 40 μM Aβ1-40, 200 μM compound, pH 7.4, 37° C.
# Protocol: Aliquots (220 μL) of pretreated Aβ^1-40 (40 μM in 20 mM Tris-HCl, pH 7.4) were added directly to 1 mm quartz circular dichroism (CD) cells, followed by 2.2 μL compound (of varying concentration) in methanol or methanol alone (controls). Solutions were incubated at 37° C. for up to 6 days. CD scans were performed on a J-810 spectropolarimeter (obtained from Jasco Corporation, Tokyo, Japan) between 190 and 250 nm, with a resolution of 0.1 nm and bandwidth of 1 nm. Ten scans were obtained for each reading. Spectra had background CD of the buffer subtracted and were left unsmoothed. Readings were performed at 37° C.
# FIG. 6 depicts circular dichroism (CD) of Aβ^1-40 alone (A) and in the presence of 0j (B) and morin (C). Conditions: 40 μM Aβ^1-40, 200 μM compound (B,C), pH 7.4, Tris-HCl (20 mM), 1% MeOH. Prior to experiment, Aβ^1-40 pretreated with 1,1,1,3,3,3-hexafluoroisopropanol (HFIP).
# [3] = test system: patients suffering from AD; conditions: ten patients, three months; cited from earlier work
# [4] = test system: patients with advanced senile dementia; conditions: daily Trp administration (24 mg/kg); cited from earlier work
# patients with dementia = conditions: one month, once daily dosing, ratings of behaviour and functional abilities; cited from earlier work
# [5] = test system: patients with mild to moderate Alzheimer's disease (AD); experiment: Phase IV double-blind randomized placebo-controlled clinical trial of L-tryptophan (Trp); type: in vivo, human
# Protocol: A phase IV clinical trial of L-tryptophan (Trp) was carried out to evaluate the amino acid's effect on cognitive abilities in patients with mild to moderate Alzheimer's disease (AD). An earlier trial has been performed which studied Trp administration in patients suffering from AD [Bentham, P W. International Clinical Psychopharmacology, 1990, 5: 261-72]. The present trial expects the possible binding of Trp to the HHQK region of Aβ [D Giulian et al. (1998). Journal of Biological Chemistry 273:29719-26] and subsequent disruption of Aβ plaque formation, whereas the earlier trial was based on neurotransmitter replacement therapy. By administering Trp, levels of its metabolite […], better known as serotonin, were expected to increase, thereby countering deficits of the neurotransmitter experienced by those suffering from AD [Siegel, G J; Agranoff, B W; Albers, R W; Molinoff, P B, Basic Neurochemistry. Fifth ed. 1994, New York: Raven Press, 1054 pp]. Also providing motivation for the trial may have been earlier accounts that Trp was seen to benefit elderly patients with mental disorders [Shaw, D M; Tidmarsh, S F; Karajgi, B M; Sweeney, E A; Williams, S; Elameer, M; Twining, C. British Journal of Psychiatry, 1981, 139: 580-2, Lehmann, J; Persson, S; Walinder, J; Wallin, L. Acta Psychiatrica Scandinavica, 1981, 64: 123-31].
# Twelve patients were enrolled in the current clinical trial. Patients were administered 1 g Trp (n=8) or placebo (n=4) twice a day for six months, and their cognitive abilities were assessed, using standardized tests, at baseline, three months and six months. All enrollment and testing was carried out at the Kingston General Hospital, Kingston, Ontario, Canada, under the supervision of the principal investigator, D. F. Weaver, M.D., Ph.D (the protocol is attached as Appendix A). The primary endpoint of the double-blind trial was to determine whether patients receiving Trp outperformed the controls, either by experiencing an improvement in cognition or a reduction in deterioration in cognitive abilities relative to the placebo group.
# Eligible participants were those who met the clinical criteria of probable Alzheimer's disease as described in the Diagnostic and Statistical Manual of Mental Disorders, fourth edition (DSM-IV) [Anonymous, Diagnostic and Statistical Manual of Mental Disorders, 4th Edition (DSM-IV). 1994, Washington, D.C.: American Psychiatric Association] and in the National Institute of Neurologic and Communicative Disorders and Stroke and the Alzheimer's Disease Related Disorders Association (NINCDS-ADRDA) [McKhann, G; Drachman, D; Folstein, M; Katzman, R; Price, D; Stadlan, E M. Neurology, 1984, 34: 939-44]. Inclusion criteria also included: mild to moderate severity of dementia, as reflected by a Mini-Mental State Examination (MMSE) [Folstein, M F; Folstein, S E; McHugh, P R. J Psychiatr Res, 1975, 12: 189-98] score of 14 to 26; minimum one-year duration of symptoms; minimum age of 50 years; living at home or in an institution provided they had caregivers capable of attending each clinic visit and ensuring the administration of medication; able to perform the psychometric tests required; reasonably good nutritional status; vital signs (blood pressure and heart rate in sitting and standing positions), urinalysis, physical examination, and neurological evaluation must yield results within normal limits or determined as not clinically significant by the study physician for the patient's age and sex.
# This study was a 6-month, double-blind randomized trial in which eligible participants were randomly assigned to receive either Trp (1000 mg, twice daily) or an identical-appearing placebo. Recruiters were unaware of the assignment. […]
# [6] = Trp 1 g twice a day (n = 8), 6 months, negative change indicates improvement
# [7] = Trp 1 g twice a day (n = 8), 6 months, positive change indicates improvement
# [8] = Trp (n = 8) vs. placebo (n = 4), 3 months
# [9] = Trp (n = 8) vs. placebo (n = 4), 6 months
# T1 sequence (P05067 672-711 limits assumed): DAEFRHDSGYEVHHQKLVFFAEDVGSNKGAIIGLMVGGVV
# T2 sequence (P05067 672-713 limits assumed): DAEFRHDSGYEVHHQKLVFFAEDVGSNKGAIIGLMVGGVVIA
smiles,measurement,setting,value
"O=C(O)c1ccc2[nH]cc(-c3c[nH]c4ccc(O)cc34)c2c1 [0j, 3-(5-Hydroxy-indol-3-yl)-indole-5-carboxylic Acid]","inhibition of Aβ1-40 aggregation, as measured by Thioflavin T (ThT) fluorescence",Aβ1-40 [1],inhibition
same,"inhibition of Aβ1-42 aggregation, as measured by ThT fluorescence",Aβ1-42,inhibiting aggregation
same,random coil (RC)→β-sheet transition of Aβ1-40 by circular dichroism,Aβ1-40 [2],inhibited to a greater extent
"N[C@@H](Cc1c[nH]c2ccccc12)C(=O)O [Trp, L-tryptophan]",correlation between the increase in Trp plasma levels and the increase in cognitive test scores,[3],statistically significant correlation
same,patients with “unequivocal improvement in blind global assessment”,[4],six of 29
same,benefit in patients with dementia,patients with dementia,of no benefit
same,"ADAS-Cog, mean (SE) change from baseline after 3 months","[5]; Trp 1 g twice a day (n = 8), 3 months, negative change indicates improvement",−0.8 (0.9)
same,"MMSE, mean (SE) change from baseline after 3 months","[5]; Trp 1 g twice a day (n = 8), 3 months, positive change indicates improvement",0.8 (0.4)
same,"ADAS-Cog, mean (SE) change from baseline after 6 months",[5]; [6],−2.8 (1.4)
same,"FAQ, mean (SE) change from baseline after 6 months",[5]; [6],3.2 (2.0)
same,"NPI, mean (SE) change from baseline after 6 months",[5]; [6],3 (3)
same,"Clock-drawing, mean (SE) change from baseline after 6 months",[5]; [7],1.1 (0.4)
same,"DAD, mean (SE) change from baseline after 6 months",[5]; [7],1.5 (1.8)
same,"MMSE, mean (SE) change from baseline after 6 months",[5]; [7],1.8 (0.5)
same,"ADCS-CGIC, mean (SE) score at 6 months","[5]; Trp 1 g twice a day (n = 8), score at 6 months, not change from baseline, lower score indicates improvement",3.6 (0.3)
same,adverse events reported by patients,"[5]; Trp 1 g twice a day, 6 months",No adverse events
same,"ADAS-Cog, treatment difference (Trp vs. placebo) after 3 months",[5]; [8],1.3
same,"MMSE, treatment difference (Trp vs. placebo) after 3 months",[5]; [8],2.0
same,"ADAS-Cog, treatment difference (Trp vs. placebo) after 6 months",[5]; [9],−6.3
same,"ADCS-CGIC, treatment difference (Trp vs. placebo) at 6 months",[5]; [9],2.9
same,"Clock-drawing, treatment difference (Trp vs. placebo) after 6 months",[5]; [9],2.9
same,"DAD, treatment difference (Trp vs. placebo) after 6 months",[5]; [9],12.8
same,"FAQ, treatment difference (Trp vs. placebo) after 6 months",[5]; [9],−2.0
same,"MMSE, treatment difference (Trp vs. placebo) after 6 months",[5]; [9],5.0
same,"NPI, treatment difference (Trp vs. placebo) after 6 months",[5]; [9],−19
same,patients depressed (Cornell Depression Index score of >5) after 6 months of treatment,"[5]; Trp group (two patients), 6 months",25%
same,sleep problems (score of >4 on the Pittsburgh Sleep Quality),[5]; at baseline or at 6 months,No sleep problems
